Each structure is given as a SMILES string. Several values for one entry are separate records, joined by “and”; a condition that tells them apart may be missing. Equal values may be shown once. Read-outs that look alike come from different tables or passages of the source.

For orientation: IC50 means the concentration that inhibits the measured activity by half. As usually defined, the logD is lipophilicity at a set pH, counting ionised and neutral species. Read a low logD as lower lipophilicity. As usually defined, the solubility is the dissolved amount per volume that the medium holds. As usually defined, the Papp is a coefficient for how fast a substance crosses the barrier.

Data set [1] is described as follows: Metabolic stability in mouse liver microsomes (MLM). The settings on record: mouse liver microsomes. The format is in vitro ADME. The source says:
(§1) Selected compounds were screened for aqueous solubility in PBS (pH 7.4), metabolic stability in mouse liver microsomes (MLM) as a measure of clearance, Log D, and permeability. ADME studies reported in this work were independently performed by WuXi AppTec (Shanghai, China). Raw data are provided upon request.
In general terms: Liver microsomes are a subcellular fraction often used to study metabolism.

Data set [2] deals with T1, S100A11-AnII (Homo sapiens, UniProt P31949).
T1 construct: made in house; host or cells: E. coli Rosetta (DE3); peptide from LifeTein
T1 sequence (P31949 1-105): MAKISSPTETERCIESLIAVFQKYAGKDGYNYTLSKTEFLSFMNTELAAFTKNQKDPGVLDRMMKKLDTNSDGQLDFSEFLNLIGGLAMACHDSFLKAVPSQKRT
Kind of data set: HTRF (TR-FRET) peptide displacement S100A11-AnII. The format is binding. The conditions noted are these: supplementary CSV. On the procedure: Table S4: Compound IDs and SMILES … S30 […]
Peptide displacement assay development
addition of an inhibitor.
Assay was done in 384-well
After 2 hours of incubation at
concentration range to avoid the saturation of the signal.
A general note: TR-FRET usually uses a lanthanide donor and a delayed reading to cut background.

Data set [3] can be described thus: Log D. In kind it is physicochemical.
Excerpt: as §1

Data set [4] in a line: Aqueous solubility in PBS (pH 7.4). In kind it is physicochemical.
Excerpt: as §1

For data set [5], the system named is HeLa. The data set is described as follows: Cell proliferation assay (CellTiter-Glo), HeLa. In kind it is cell-based. The conditions noted are these: Homo sapiens, 48 h, supplementary CSV. On the procedure: (§2) To further characterize the potency of the phenylproline derivatives on cancer cells, their effect on proliferation has been measured on HeLa and A549 cell lines, which are known to express S100A4.[44],[45] A cell proliferation assay was performed by cultivating cells for 48 h in complete media with various concentrations of inhibitors, up to 30 μM. At the end of the treatment, luminescence was measured after the addition of the CellTiter-Glo reagent (Figure 7A).
(§3) The day before, cells were seeded in a white, cell-culture treated 384-well plates in complete high-glucose DMEM to reach a confluency of 25% on the day of the experiment. The next day, the medium was replaced by complete, high-glucose, phenol-red-free medium, and cells were incubated for 48 h in the presence of an inhibitor or DMSO as a control. Aliquots of the supernatant were harvested, diluted 100 times in 200 mM Tris-HCl, pH 7.3, 10% glycerol, and 1% BSA buffer, and used for cyctotoxicity measurement by using the LDH-Glo cytotoxicity assay kit (Promega). In parallel, the CellTiter-Glo (Promega) reagent was added to the cells to measure cell proliferation. Both experiments were done according to the manufacturer’s recommendations, and the luminescence was quantified using the FSX plate reader (Pherastar).
For orientation: Cellular ATP, detected with luciferase, serves as a proxy for viable cell number.

Data set [6] in a line: GSH reactivity assay (LCMS). The format is physicochemical. The conditions noted are these: 1 mM glutathione (GSH) in HEPES buffer, pH 7.5; read-out: GSH t1/2 (converted). How it is done:
GSH is the most abundant low molecular weight thiol compound in the cell. It protects cells from oxidative damage and the toxicity of xenobiotic electrophiles and maintains redox homeostasis.[43] We speculated that a robust and specific reaction of inhibitors would not be drastically affected by competitive cysteines in the reaction.
50 μM of each compound was incubated at room temperature with 1 mM GSH in 50 mM HEPES, 20 mM NaCl, pH 7.5, and 1.3% DMSO. At each time point, an aliquot was taken and analyzed by LCMS. The percentage of the compound remaining was determined by comparing the area of the peaks of the compound and the GSH adduct. The natural logarithm of the results was fitted to a linear regression, and t1/2 was calculated as t1/2 = ln(2)/–slope.

Data set [7] has as its system A549. Kind of data set: Cell proliferation assay (CellTiter-Glo), A549. The format is cell-based. The conditions noted are these: Homo sapiens, 48 h, supplementary CSV. On the procedure:
as §2, §3

Data set [8] deals with MDCK-MDR1 cell line. The data set is described as follows: Cell permeability MDR1-MDCK II. The format is in vitro ADME.
Excerpt: as §1

The subject of data set [9] is P-glycoprotein (P-gp, MDR1). Kind of data set: Cell permeability MDR1-MDCK II. The format is in vitro ADME. The settings on record: dog.
Excerpt: as §1

A short description of data set [10]: Cytotoxicity assay (LDH-Glo), HeLa. In kind it is cell-based. The conditions noted are these: human, HeLa cells, supplementary CSV, read-out: HeLa Cell toxicity IC50. How it is done: as §2, §3
Data set [11] can be described thus: Cytotoxicity assay (LDH-Glo), A549. In kind it is cell-based. The settings on record: human, A549 cells, supplementary CSV, read-out: A549 Cell toxicity IC50. On the procedure: as §2, §3
Data set [12] has as its system S100A4. The arrangement: method as in PMID 20421509. The settings on record: by inducing oligomerization; read-out: IC50 S100A4 inhibition; cited from earlier work.

Regarding `O=C(NC1CCCc2ccccc21)[C@H]1C[C@H](c2ccccc2)CN1C(=O)CCl` (stereo partly drawn) [5b], in data set [1], the “MLM, Cli” value is 778 μL/min/mg protein. Also, in data set [1] (read-out: MLM, T1/2), the half-life was determined as 2 min. The IC50 was over 30 µM in data set [2], 2600 nM in data set [5] and 22.1 µM in [7]. This molecule registered a logD in data set [3] of 3.74. Also, the “aqueous solubility (in words)” value in data set [4] is listed as “good solubility”. Besides, in data set [4] (aqueous buffer, PBS pH 7.4, read-out: aq. solubility), the solubility is 45.7 µg/mL and 115 µM. For the same molecule, the half-life at 50 μM in data set [6] is 342 min. The “cell permeability MDCK-MDR1 (in words)” value in data set [8] is “good permeability without efflux”. The Papp in data set [9] (MDCK-MDR1, A to B, read-out: MDR1-MDCK II, AB Papp) is 3.8 ×10⁻⁶ cm/s; in [9] (MDCK-MDR1, B to A, read-out: MDR1-MDCK II, BA Papp), 34.5 ×10⁻⁶ cm/s. Also, the IC50 at 48 h in data set [10] came to 29.9 µM; in data set [11], 29.7 µM.

As to `c1ccc2c(c1)Nc1ccccc1S2` [phenothiazine], the IC50 in data set [12] was about 100 µM.
